The results in this text go back to ChEMBL document CHEMBL1275398, “Side chain cyclization based on serine residues: synthesis, structure, and activity of a novel cyclic analogue of the parathyroid hormone fragment 1-11” (J Med Chem, 2010).

The target in test [1] is T1, Parathyroid hormone/parathyroid hormone-related peptide receptor (Homo sapiens, UniProt Q03431).
T1 sequence (Q03431 whole entry): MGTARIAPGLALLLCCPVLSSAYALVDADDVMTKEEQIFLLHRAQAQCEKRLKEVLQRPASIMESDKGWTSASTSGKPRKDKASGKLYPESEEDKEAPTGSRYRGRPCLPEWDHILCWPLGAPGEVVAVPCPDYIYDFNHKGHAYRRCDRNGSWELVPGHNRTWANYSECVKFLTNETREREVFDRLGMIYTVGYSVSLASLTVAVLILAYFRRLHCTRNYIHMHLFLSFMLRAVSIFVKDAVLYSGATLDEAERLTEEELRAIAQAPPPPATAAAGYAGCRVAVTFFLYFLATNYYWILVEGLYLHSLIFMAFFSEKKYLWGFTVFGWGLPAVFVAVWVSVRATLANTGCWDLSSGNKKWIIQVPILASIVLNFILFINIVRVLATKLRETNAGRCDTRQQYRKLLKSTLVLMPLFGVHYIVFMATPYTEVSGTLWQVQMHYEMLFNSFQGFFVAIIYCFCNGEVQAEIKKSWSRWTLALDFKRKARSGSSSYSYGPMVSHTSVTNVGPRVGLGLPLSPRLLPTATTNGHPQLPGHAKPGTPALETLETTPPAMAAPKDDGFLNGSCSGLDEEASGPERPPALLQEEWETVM
Put plainly: Agonist activity at recombinant PTHR1 expressed in HEK293 cells co-transfected with CRE-Luc assessed as increase of adenylyl cyclase activity after 4.5 hrs by luciferase assay. Format: functional, cell-based.

In test [2] the target is T2, Parathyroid hormone/parathyroid hormone-related peptide receptor (Homo sapiens) (UniProt Q03431).
T2 sequence (whole entry): T1 sequence (Q03431 whole entry)
Description: Agonist activity at recombinant PTHR1 expressed in HEK293 cells co-transfected with CRE-Luc assessed as maximal increase of adenylyl cyclase activity after 4.5 hrs by luciferase assay relative to control. Format: functional, cell-based.

*1 amine or outer side, *2 acyl side, *3 side chain or, on linkers, in order; H or OH if unused. Where a SMILES comes first, the peptide text is derived from it. Bridges are numbered along the chain shown (N, C = ends). [ ]: non-standard residue; d: D form. Adipoyl = O=C(CCCCC(=O)[*:2])[*:1]; hArg = N=C(N)NCCCC[C@H](N)C(=O)O; Nle = CCCC[C@H](N)C(=O)O; Aib = CC(C)(N)C(=O)O

Consider `CCCC[C@@H]1NC(=O)[C@H](CC(C)C)NC(=O)[C@@H](NC(=O)[C@@H](NC(=O)[C@H](CCC(=O)O)NC(=O)C(C)(C)NC(=O)[C@@H](NC(=O)C(C)(C)N)C(C)C)[C@@H](C)CC)COC(=O)CCCCC(=O)OC[C@@H](C(=O)N[C@@H](CCCCN=C(N)N)C(N)=O)NC(=O)[C@H](Cc2cnc[nH]2)NC1=O` (H-[Aib]V[Aib]EISL[Nle]HS[hArg]-NH2; linker 6-10 via Adipoyl), for which the EC50 in test [1] came out at 0.2 nM.

On to `CCCC[C@@H]1NC(=O)[C@H](CC(C)C)NC(=O)[C@@H](NC(=O)[C@@H](NC(=O)[C@H](CCC(=O)O)NC(=O)C(C)(C)NC(=O)[C@@H](NC(=O)C(C)(C)N)C(C)C)[C@@H](C)CC)CCCCNC(=O)CC[C@@H](C(=O)N[C@@H](CCCCN=C(N)N)C(N)=O)NC(=O)[C@H](Cc2cnc[nH]2)NC1=O` (H-[Aib]V[Aib]EIKL[Nle]HE[hArg]-NH2; lactam 6-10), for which the EC50 in test [1] was determined as 1120 nM.

Consider `CCCC[C@@H]1NC(=O)[C@H](CC(C)C)NC(=O)[C@@H](NC(=O)[C@@H](NC(=O)[C@H](CCC(=O)O)NC(=O)C(C)(C)NC(=O)[C@@H](NC(=O)C(C)(C)N)C(C)C)[C@@H](C)CC)CCCCNC(=O)CC[C@@H](C(=O)N[C@@H](CCCCNC(=N)N)C(N)=O)NC(=O)[C@H](Cc2cnc[nH]2)NC1=O` (H-[Aib]V[Aib]EIKL[Nle]HE[hArg]-NH2; lactam 6-10), for which the Activity in test [2] turned out to be 98%.

Consider `CCCC[C@@H]1NC(=O)[C@H](CC(C)C)NC(=O)[C@@H](NC(=O)[C@@H](NC(=O)[C@H](CCC(=O)O)NC(=O)C(C)(C)NC(=O)[C@@H](NC(=O)C(C)(C)N)C(C)C)[C@@H](C)CC)COC(=O)CCCCC(=O)OC[C@@H](C(=O)N[C@@H](CCCCNC(=N)N)C(N)=O)NC(=O)[C@H](Cc2cnc[nH]2)NC1=O` (H-[Aib]V[Aib]EISL[Nle]HS[hArg]-NH2; linker 6-10 via Adipoyl), for which the Activity in test [2] came out at 159%.

For `CCCC[C@H](NC(=O)[C@H](CC(C)C)NC(=O)[C@H](CCC(N)=O)NC(=O)[C@@H](NC(=O)[C@H](CCC(=O)O)NC(=O)C(C)(C)NC(=O)[C@@H](NC(=O)C(C)(C)N)C(C)C)[C@@H](C)CC)C(=O)N[C@@H](Cc1cnc[nH]1)C(=O)N[C@@H](CCC(N)=O)C(=O)N[C@@H](CCCCN=C(N)N)C(N)=O` (H-[Aib]V[Aib]EIQL[Nle]HQ[hArg]-NH2), the 50% effective concentration (EC50) in test [1] is 2.4 nM.

Regarding `CCCC[C@H](NC(=O)[C@H](CC(C)C)NC(=O)[C@H](CCC(N)=O)NC(=O)[C@@H](NC(=O)[C@H](CCC(=O)O)NC(=O)C(C)(C)NC(=O)[C@@H](NC(=O)C(C)(C)N)C(C)C)[C@@H](C)CC)C(=O)N[C@@H](Cc1cnc[nH]1)C(=O)N[C@@H](CCC(N)=O)C(=O)N[C@@H](CCCCNC(=N)N)C(N)=O` (H-[Aib]V[Aib]EIQL[Nle]HQ[hArg]-NH2), the Activity in test [2] came to 90%.

For orientation: EC50 means the concentration needed to bring the measured effect to its halfway point.
